From US6890533B2, “Betulinol derivatives” (Cornell Research Foundation, Inc., priority 1997, dated 2005) come the findings set out here.

In data set [1] the test system is WALKER-CARCINOMA (carcinosarcoma). The experiment in a line: anti-carcinogenic activity in rats implanted with Walker carcinoma. The format is in vivo, white rats. The settings on record: for ALL, % of control / ALL (Average length of life) / % cured: rats; for ALL (Average length of life): injected daily for 5 days; for % cured: cured rats lived over two months after implantation.
Description: The anti-carcinogenic activity of betulinol biacetate and betulonic aldehyde was assessed using 117-120 gram white rats implanted with worker's carcinoma and 21-23 gram white mice with artificially transplanted Ehrlich's tumor.
Solutions of 2.5% betulonic aldehyde and 0.05% betulinol biacetate were prepared in 10% polyvinylpyrrolidone containing Tween-80 (a sorbitan mono-9-octadecenate poly(oxy-1,2-ethanediyl)) stabilizer.
Mice were injected with 0.1-0.2 ml of either betulinol biacetate or betulonic aldehyde solution daily, starting 24 hours after transplantation, for the following 5 days. Rats were injected with 1.2 ml of either betulinol biacetate or betulonic aldehyde solution daily, starting 24 hours after implantation, for the following 5 days. Animals in control groups received the same amount of a 10% solution of polyvinylpyrrolidone.
The anti-tumor effect of betulinol acetate or betulonic aldehyde was determined by measuring the volume of the tumor on the 10th day after implantation. An average length of life (“ALL”) was calculated for each of the deceased animals. In addition, the percentage of cured rats was also determined.
The volume of the tumor was measured and calculated as a multiple of the quadrate of its similar diameter by the greater diameter. Thus, the effect was expressed as a ratio (“E/C”), in percent, of the tumor volume in rats treated with betulinol acetate or betulonic aldehyde (“E”) and the tumor volume in control rats (“C”). The effect of betulinol acetate or betulonic aldehyde on ALL was evaluated the same way.

A short description of data set [2]: BBA solubility in organic solvents. The settings on record: for BBA Mass Content, %, at 20° C.: mass % in organic solvent. The format is physicochemical. As to the method: Studies of betulinol biacetate solubility were conducted in order to determine the appropriate solvent for product crystallization and purification.
[3] abbreviates: Group 1, Dose/day 204.6 (mg/kg body weight).
The mark [4] stands for this setting: Group 2, Dose/day 106.9 (mg/kg body weight).

For the molecule `C=C(C)[C@@H]1CC[C@]2(COC(C)=O)CC[C@]3(C)[C@H](CC[C@@H]4[C@@]5(C)CC[C@H](OC(C)=O)C(C)(C)[C@@H]5CC[C@]43C)[C@@H]12` [Betulinol diacetate, Betulinol Biacetate], the “ALL, % of control” value in data set [1] (setting [3]) is listed as 131.3%; in data set [1] (setting [4]), 200.5%. In addition, the entries for the “ALL (Average length of life)” value in data set [1] (setting [3]) and in data set [1] (setting [4]) were 28.5 days and 43.5 days, respectively. Moreover, the results for the “% cured” value in data set [1] (setting [3]) and in data set [1] (setting [4]) were 50.0% and 67.0%, respectively. Moreover, in data set [1] (tumor volume on the 10th day, versus control group), the “rate of the tumor growth inhibited, of the control group” value came to 55.2%. In addition, the “BBA Mass Content, %, at 20° C.” value in data set [2] (Benzene) turned out to be 100%; in data set [2] (Chloroform), 100%; in data set [2] (Dimethylsulfoxide) it was 30%; in data set [2] (Hexane) it was 15%; in data set [2] (Toluene), 100%. For the same molecule, the “BBA Mass Content, %, at T (° C.)” value amounted to 100% in data set [2] (Butanol, T 95 ° C.); 100% in data set [2] (Dimethylsulfoxide, T 189 ° C.); 100% in data set [2] (Dioxane, T 101 ° C.).
